Data on 44 molecules can be found in ChEMBL document CHEMBL4651402, “Screening of ~5500 FDA-approved drugs and clinical candidates for anti-SARS-CoV-2 activity” (2021).

The subject of the assay is SARS-CoV-2. Nature of the assay: microbe, parasite or virus in culture. As to conditions: Severe acute respiratory syndrome coronavirus 2, Vero C1008, 48 h.

The structures appear in SMILES notation. Structures can show the parent of a compound that is named as a salt. A value given as a limit tells only on which side of the number the result lay.

`COc1ccc(COc2cc3oc(=O)c4cc(C(C)O)ccc4c3cc2OC)cc1` (stereo not drawn) [PALOMID-529]: the IC50 was above 20 µM. Also, for the setting “read-out: pIC50 (converted)”, the IC50 is above 20 µM.

Molecule `Cc1cc(NC(=O)NCCN2CCC(O)(Cc3ccccc3)CC2)c2ccccc2n1` [PALOSURAN] came in with an IC50 above 20 µM. Where the note is “read-out: pIC50 (converted)”, the IC50 was above 20 µM.

Regarding `Cn1c(=O)c2[nH]c(Br)nc2n(C)c1=O` [PAMABROM], the IC50 was above 20 µM. Also, for the setting “read-out: pIC50 (converted)”, the IC50 was above 20 µM.

Regarding `C[C@]12CCCN1CC1=NNC(=O)c3cc(F)cc4[nH]c2c1c34` [PAMIPARIB], the IC50 was above 20 µM. The IC50 (read-out: pIC50 (converted)) was above 20 µM.

Molecule `CC(=O)O[C@H]1C[C@@H]2CC[C@@H]3[C@H](CC[C@@]4(C)[C@H]3C[C@H]([N+]3(C)CCCCC3)[C@@H]4OC(C)=O)[C@@]2(C)C[C@@H]1[N+]1(C)CCCCC1` [PANCURONIUM] came in with an IC50 above 20 µM. Further, the IC50 (read-out: pIC50 (converted)) was above 20 µM.

On to `Cc1[nH]c2ccccc2c1CCNCc1ccc(/C=C/C(=O)NO)cc1` [PANOBINOSTAT], for which the IC50 was above 20 µM. Also, the IC50 (read-out: pIC50 (converted)) was above 20 µM.

With `CC(C)(CO)[C@@H](O)C(=O)NCCC(=O)O` [PANTOTHENIC ACID], the IC50 is above 20 µM. In addition, under “read-out: pIC50 (converted)”, the IC50 is above 20 µM.

`COc1ccc(Cc2nccc3cc(OC)c(OC)cc23)cc1OC` [PAPAVERINE]: the IC50 was above 20 µM. In addition, the IC50 (read-out: pIC50 (converted)) is above 20 µM.

For `COc1ccc(CC(C)N)cc1` (stereo not drawn) [PARA-METHOXYAMPHETAMINE], the IC50 is above 20 µM. For the same molecule, the IC50 (read-out: pIC50 (converted)) is above 20 µM.

As for `Oc1ccc(Cl)cc1` [PARACHLOROPHENOL], the IC50 was above 20 µM. Also, the IC50 (read-out: pIC50 (converted)) is above 20 µM.

`CCC1(C)OC(=O)N(C)C1=O` (stereo not drawn) [PARAMETHADIONE] came in with an IC50 above 20 µM. In addition, the IC50 (read-out: pIC50 (converted)) was above 20 µM.

Turning to `C[N+]1(C)CCC(OC(=O)C(O)(c2ccccc2)c2ccccc2)CC1` [PARAPENZOLATE], the IC50 was above 20 µM. For the same molecule, the IC50 (read-out: pIC50 (converted)) is above 20 µM.

Consider `Cn1c(=O)[nH]c2ncn(C)c2c1=O` [PARAXANTHINE], for which the IC50 was above 20 µM. Under “read-out: pIC50 (converted)”, the IC50 is above 20 µM.

As for `CCCCc1ccc2[nH]c(NC(=O)OC)nc2c1` [PARBENDAZOLE], the IC50 is above 20 µM. The IC50 (read-out: pIC50 (converted)) was above 20 µM.

Molecule `CCC(=O)NS(=O)(=O)c1ccc(-c2c(-c3ccccc3)noc2C)cc1` [PARECOXIB] came in with an IC50 above 20 µM. Further, under “read-out: pIC50 (converted)”, the IC50 was above 20 µM.

With `C#CCN(C)Cc1ccccc1` [PARGYLINE], the IC50 is above 20 µM. In addition, the IC50 (read-out: pIC50 (converted)) is above 20 µM.

For `NC[C@@H]1O[C@H](O[C@H]2[C@@H](O)[C@H](O[C@@H]3[C@@H](O)[C@H](N)C[C@H](N)[C@H]3O[C@H]3O[C@H](CO)[C@@H](O)[C@H](O)[C@H]3N)O[C@@H]2CO)[C@H](N)[C@@H](O)[C@@H]1O` [PAROMOMYCIN], the IC50 was above 20 µM. The IC50 (read-out: pIC50 (converted)) is above 20 µM.

Take `CCC(=O)c1ccc(O)cc1` [PAROXYPROPIONE]: the IC50 was above 20 µM. The IC50 (read-out: pIC50 (converted)) was above 20 µM.

`Cc1cnc(N2CC3(CCOCC3)C2)c(C(=O)Nc2ccc(C(=O)N3CCc4cc(C(=O)Nc5c(C)cccc5F)sc4-c4ccccc43)cc2)c1` [PC-786] yielded an IC50 above 20 µM. Where the note is “read-out: pIC50 (converted)”, the IC50 is above 20 µM.

Turning to `CCn1cc(C(=O)O)c(=O)c2cc(F)c(N3CCN(C)CC3)cc21` [PEFLOXACIN], the IC50 was above 20 µM. The IC50 (read-out: pIC50 (converted)) is above 20 µM.

In turn, `CCOc1cc2ncc(C#N)c(Nc3ccc(F)c(Cl)c3)c2cc1NC(=O)/C=C/CN(C)C` [PELITINIB] came in with an IC50 above 20 µM. Also, where the note is “read-out: pIC50 (converted)”, the IC50 was above 20 µM.

`Cc1nc(=O)c(C#N)c(NCc2cccnc2)[nH]1` [PELRINONE] registered an IC50 above 20 µM. Moreover, for the setting “read-out: pIC50 (converted)”, the IC50 was above 20 µM.

As for `CCC1(CC(=O)O)OCC(Cc2ccccc2)c2c1[nH]c1ccccc21` (stereo not drawn) [PEMEDOLAC], the IC50 was above 20 µM. Moreover, the IC50 (read-out: pIC50 (converted)) was above 20 µM.

On to `CN(C)CCCOC1CC(C)(C)N(C)C(C)(C)C1` [PEMERID], for which the IC50 is above 20 µM. Also, for the setting “read-out: pIC50 (converted)”, the IC50 is above 20 µM.

`Nc1nc2[nH]cc(CCc3ccc(C(=O)N[C@@H](CCC(=O)O)C(=O)O)cc3)c2c(=O)[nH]1` [PEMETREXED]: the IC50 is above 20 µM. Besides, the IC50 (read-out: pIC50 (converted)) is above 20 µM.

With `Cc1cccn2c(=O)c(-c3nnn[nH]3)cnc12` [PEMIROLAST], the IC50 was above 20 µM. Further, for the setting “read-out: pIC50 (converted)”, the IC50 was above 20 µM.

As to `NC1=NC(=O)C(c2ccccc2)O1` (stereo not drawn) [PEMOLINE], the IC50 was above 20 µM. Besides, the IC50 (read-out: pIC50 (converted)) was above 20 µM.

`CN1C(C)(C)CCCC1(C)C` [PEMPIDINE] displayed an IC50 above 20 µM. Further, the IC50 (read-out: pIC50 (converted)) was above 20 µM.

Take `Nc1nc(O)c2ncn(CCC(CO)CO)c2n1` [PENCICLOVIR]: the IC50 is above 20 µM. Further, the IC50 (read-out: pIC50 (converted)) was above 20 µM.

In turn, `CC(C)(S)[C@@H](N)C(=O)O` [PENICILLAMINE] returned an IC50 above 20 µM. For the same molecule, the IC50 (read-out: pIC50 (converted)) was above 20 µM.

The molecule `CC1(C)S[C@@H]2[C@H](NC(=O)Cc3ccccc3)C(=O)N2[C@H]1C(=O)O` [PENICILLIN G] came in with an IC50 above 20 µM. For the setting “read-out: pIC50 (converted)”, the IC50 was above 20 µM.

For `CSCC[C@H](NC(=O)[C@H](Cc1c[nH]c2ccccc12)NC(=O)CCNC(=O)OC(C)(C)C)C(=O)N[C@@H](CC(=O)O)C(=O)N[C@@H](Cc1ccccc1)C(N)=O` [PENTAGASTRIN], the IC50 was above 20 µM. For the same molecule, the IC50 (read-out: pIC50 (converted)) was above 20 µM.

For the molecule `C[N+](C)(C)CCCCC[N+](C)(C)C` [PENTAMETHONIUM], the IC50 was above 20 µM. Besides, where the note is “read-out: pIC50 (converted)”, the IC50 is above 20 µM.

In turn, `N=C(N)c1ccc(OCCCCCOc2ccc(C(=N)N)cc2)cc1` [PENTAMIDINE] registered an IC50 above 20 µM. Moreover, the IC50 (read-out: pIC50 (converted)) is above 20 µM.

The molecule `CCC(C)C(C(=O)OC1CCN(C)CC1)c1ccccc1` (stereo not drawn) [PENTAPIPERIDE] displayed an IC50 above 20 µM. Besides, the IC50 (read-out: pIC50 (converted)) was above 20 µM.

Molecule `O=C(O)CN(CCN(CC(=O)O)CC(=O)O)CCN(CC(=O)O)CC(=O)O` [PENTETIC ACID] registered an IC50 above 20 µM. Moreover, the IC50 (read-out: pIC50 (converted)) is above 20 µM.

Turning to `CC[N+](C)(CC)CCOC(=O)C(O)(c1cccs1)C1CCCC1` (stereo not drawn) [PENTHIENATE], the IC50 is above 20 µM. Besides, the IC50 (read-out: pIC50 (converted)) was above 20 µM.

`CCCC(C)C1(CC)C(=O)NC(=O)NC1=O` (stereo not drawn) [PENTOBARBITAL] returned an IC50 above 20 µM. Also, for the setting “read-out: pIC50 (converted)”, the IC50 is above 20 µM.

`CCOC(=O)[C@H](C)C[C@@H](C)C(=O)N1c2ccccc2C[C@H]1C(=O)O` [PENTOPRIL]: the IC50 was above 20 µM. The IC50 (read-out: pIC50 (converted)) was above 20 µM.

`OC[C@H]1O[C@@H](n2cnc3c2N=CNC[C@H]3O)C[C@@H]1O` [PENTOSTATIN] yielded an IC50 above 20 µM. Also, for the setting “read-out: pIC50 (converted)”, the IC50 was above 20 µM.

`CC(=O)CCCCn1c(=O)c2c(ncn2C)n(C)c1=O` [PENTOXIFYLLINE]: the IC50 was above 20 µM. In addition, the IC50 (read-out: pIC50 (converted)) is above 20 µM.

Molecule `C1CCc2nnnn2CC1` [PENTYLENETETRAZOL] returned an IC50 above 20 µM. In addition, the IC50 (read-out: pIC50 (converted)) is above 20 µM.

Molecule `CC(C)CC(=O)N[C@H](C(=O)N[C@H](C(=O)N[C@@H](CC(C)C)[C@@H](O)CC(=O)N[C@@H](C)C(=O)N[C@@H](CC(C)C)[C@@H](O)CC(=O)O)C(C)C)C(C)C` [PEPSTATIN] yielded an IC50 above 20 µM. The IC50 (read-out: pIC50 (converted)) was above 20 µM.

For `CCCN1C[C@H](CSC)C[C@@H]2c3cccc4[nH]cc(c34)C[C@H]21` [PERGOLIDE MESYLATE], the IC50 was above 20 µM. The IC50 (read-out: pIC50 (converted)) is above 20 µM.
